Source: PMC2680961, “Homologous desensitization of signalling by the alpha (α) isoform of the human thromboxane A2 receptor: A specific role for nitric oxide signalling” (Biochimica et Biophysica Acta, 2007)
Structures can show the parent of a compound that is named as a salt.

Columns and labels:
Assay type in all cases: cell-based
TP^Δ328 = target: T1, TP^Δ328 (Homo sapiens, UniProt P21731); assay: Intracellular calcium mobilization, HEK.TP^Δ328 cells; conditions: HEK.TP^Δ328
T1 construct: expressed in transfected cells
T1 sequence (P21731 1-328): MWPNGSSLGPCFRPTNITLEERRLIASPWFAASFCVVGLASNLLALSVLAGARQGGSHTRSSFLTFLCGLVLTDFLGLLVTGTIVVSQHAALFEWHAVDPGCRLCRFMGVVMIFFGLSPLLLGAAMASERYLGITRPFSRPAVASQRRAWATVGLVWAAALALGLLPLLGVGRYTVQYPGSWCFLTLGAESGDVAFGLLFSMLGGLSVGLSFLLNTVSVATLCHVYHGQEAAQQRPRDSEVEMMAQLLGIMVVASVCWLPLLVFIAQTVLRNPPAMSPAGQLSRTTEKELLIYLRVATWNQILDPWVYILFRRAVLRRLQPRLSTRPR
Protocol: (§1) Measurement of intracellular calcium mobilization ([Ca^2+]i) in FURA2/AM preloaded HEK 293 cell lines (2 × 10^6 cells/dish), each transiently co-transfected with pADVA (10 μg), and pCMV:Gαq (25 μg), was carried out as previously described. To investigate the effect of GRK2/βARK1 on TP-mediated [Ca^2+]i mobilization, HEK.TPα or HEK.TPβ cells (2 × 10^6 cells/dish) were co-transfected with pADVA (10 μg), pCMV:Gαq (25 μg) along with pRK5:βARK1^495–689 (25 μg), encoding a dominant negative form of GRK2/βARK1[39]. Approximately 48 h post-transfection, cells were harvested by scraping, washed twice in ice-cold PBS and resuspended in HBSSHB (modified Ca^2+/Mg^2+-free Hank's buffered salt solution, containing […], pH 7.67, 0.1% bovine serum albumin (BSA)) buffer at 10^7 cells/ml and incubated in the dark with 5 μM FURA2/AM for 45 min at 37 °C. Cells were collected by centrifugation (900×g, 5 min), washed once in an equal volume of HBSSHB, and were finally resuspended in HBSSHB buffer at 10^7 cells/ml and kept at room temperature in the dark for 40 min. For each measurement of [Ca^2+]i mobilization, aliquots of cells were diluted to 0.825 × 10^6 cells/ml in HBSSHB, 1 mM CaCl2 and FURA2 fluorescence was recorded (2 ml aliquots of cells) at 37^ °C with gentle stirring with a Perkin Elmer-Cetus LS50-B spectrofluorometer at excitation wavelengths of 340 nm and 380 nm and emission wavelength of 510 nm, respectively.
(§2) Cells were stimulated with the TP agonist U46619 (1 μM) and changes in [Ca^2+]i mobilization were monitored as a function of time. To assess agonist-mediated homologous desensitization, cells (0.825 × 10^6 cells/ml; 2 ml per assay) were stimulated with 1 μM U46619 (Primary stimulation) or, as a control, with the vehicle for 4 min; thereafter, cells were collected by centrifugation (900×g, 5 min); were washed twice in 2 ml HBSSHB, 1 mM CaCl2; and finally resuspended in 2 ml HBSSHB,1 mM CaCl2 and were left to recover over various time intervals (ranging from 0 to 60 min); thereafter, cells re-stimulated with 1 μM U46619 (Secondary stimulation) and changes in [Ca^2+]i mobilization were monitored as a function of time. To assess the role of protein kinase (PK) A, PKC or PKG on U46619-mediated desensitization of TPα signalling, cells were pre-incubated with the PKA inhibitor H-89 (10 μM), the PKC inhibitor GF 109203X (50 nM) or the PKG inhibitor KT 5823 (50 nM), for 15 min and respective kinase inhibitors were maintained throughout the primary/secondary U46619-stimulations and during the washes.
(§3) The vehicle had no effect on U46619-mediated [Ca^2+]i mobilization. Calibration of the signal was performed in each sample by adding 0.2% Triton X-100 to obtain the maximal fluorescence ratio (Rmax) and then 1 mM EGTA to obtain the minimal fluorescence ratio (Rmin). The ratio of the fluorescence at 340 nm to that at 380 nm is a measure of [Ca^2+]i, which assumes a Kd of 225 nM Ca^2+ for FURA2/AM. The results presented in the figures are representative data from at least three or four independent experiments and are plotted as changes in Ca^2+i mobilized (Δ[Ca^2+]i (nM)) as a function of time (s) upon ligand stimulation. Changes in [Ca^2+]i mobilization were determined by measuring peak rises in [Ca^2+]i mobilized (Δ[Ca^2+]i) and were calculated as mean changes in Δ[Ca^2+]i ± S.E.M. (nM).

TPα = target: T2, TPα (Homo sapiens, UniProt P21731); assay: Intracellular calcium mobilization, HEK.TPα cells
T2 construct: expressed in transfected cells
T2 sequence (P21731 1-343): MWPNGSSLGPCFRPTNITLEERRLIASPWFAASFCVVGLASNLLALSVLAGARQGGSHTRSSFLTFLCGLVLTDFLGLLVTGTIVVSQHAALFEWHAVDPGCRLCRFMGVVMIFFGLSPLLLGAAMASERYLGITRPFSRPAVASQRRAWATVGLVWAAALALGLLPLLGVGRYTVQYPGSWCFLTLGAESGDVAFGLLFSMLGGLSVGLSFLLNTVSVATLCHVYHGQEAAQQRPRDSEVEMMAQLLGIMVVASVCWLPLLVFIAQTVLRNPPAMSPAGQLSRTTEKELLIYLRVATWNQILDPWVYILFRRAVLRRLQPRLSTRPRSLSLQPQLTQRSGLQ
Protocol: as §1
as §2, with “Cells were stimulated with the TP agonist U46619 (1 μM) and changes in [Ca^2+]i mobilization were monitored as a function of time.” left out
as §3

TPβ [1] = target: T3, TPβ (Homo sapiens, UniProt P21731); assay: Intracellular calcium mobilization, HEK.TPβ cells; conditions: inhibitor pre-incubated 15 min, primary/secondary U46619 stimulation
T3 construct: expressed in transfected cells
T3 sequence (P21731 1-407 isoform P21731-2): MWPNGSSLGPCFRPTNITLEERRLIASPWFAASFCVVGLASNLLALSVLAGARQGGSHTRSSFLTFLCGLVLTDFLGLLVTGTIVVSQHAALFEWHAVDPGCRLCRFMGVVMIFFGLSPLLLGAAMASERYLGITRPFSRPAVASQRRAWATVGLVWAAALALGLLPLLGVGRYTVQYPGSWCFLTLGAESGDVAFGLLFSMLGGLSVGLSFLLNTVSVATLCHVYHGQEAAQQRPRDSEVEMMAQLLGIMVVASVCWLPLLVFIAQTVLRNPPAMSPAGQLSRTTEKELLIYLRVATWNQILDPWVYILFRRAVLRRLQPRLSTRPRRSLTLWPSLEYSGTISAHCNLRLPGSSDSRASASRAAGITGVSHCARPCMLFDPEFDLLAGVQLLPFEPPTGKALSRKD

TPβ [2] = target: T3, TPβ; assay: Intracellular calcium mobilization, HEK.TPβ cells
Protocol: as §1, §2, §3

Compound: CN(C)CCCn1cc(C2=C(c3c[nH]c4ccccc34)C(=O)NC2=O)c2ccccc21 [GF 109203X, 2-[1-(3-dimethylaminopropyl)-1H-indol-3-yl]-3-(1H-indol-3-yl)-maleimide]
- Δ[Ca2+]i, U46619-induced (TP^Δ328; primary 1 μM U46619 in presence of 50 nM GF 109203X): 200 ± 9.8 nM
- Δ[Ca2+]i, U46619-induced (TP^Δ328; secondary 1 μM U46619 at 15 min in presence of 50 nM GF 109203X): 200 ± 12 nM
- Δ[Ca2+]i, U46619-induced (TPα; HEK.TPα, primary 1 μM U46619 in presence of 50 nM GF 109203X): 250 ± 12 nM
- Δ[Ca2+]i, U46619-induced (TPα; HEK.TPα, secondary 1 μM U46619 at 15 min in presence of 50 nM GF 109203X): 90 ± 8 nM
- secondary U46619 [Ca2+]i response relative to primary response (TPα; TPα, in presence of GF 109203X (50 nM)): 36%

Compound: Cl.Cl.O=S(=O)(NCCNCC=Cc1ccc(Br)cc1)c1cccc2cnccc12 [H-89, N-[2-((p-bromocinnamyl)amino)ethyl]-5-isoquino-linesulfonamide, 2HCL]
- effect of inhibitor on [Ca2+]i mobilization in response to primary or secondary U46619 (TP^Δ328; H-89 10 μM pre-incubation): no significant effect
- Δ[Ca2+]i, U46619-induced (TP^Δ328; primary 1 μM U46619 in presence of 10 μM H-89): 180 ± 10 nM
- Δ[Ca2+]i, U46619-induced (TP^Δ328; secondary 1 μM U46619 at 15 min in presence of 10 μM H-89): 165 ± 8 nM
- effect of inhibitor on [Ca2+]i mobilization in response to primary or secondary U46619 (TPα; HEK.TPα, H-89 10 μM pre-incubation): no significant effect
- Δ[Ca2+]i, U46619-induced (TPα; HEK.TPα, primary 1 μM U46619 in presence of 10 μM H-89): 220 ± 9.2 nM
- Δ[Ca2+]i, U46619-induced (TPα; HEK.TPα, secondary 1 μM U46619 at 15 min in presence of 10 μM H-89): 0 nM

Compound: COC(=O)[C@@H](N)CCCNC(N)=N[N+](=O)[O-] [L-NAME, NG-Nitro-L-arginine Methyl Ester, Hydrochloride]
- effect of inhibitor on U46619-induced [Ca2+]i mobilization by TPβ (TPβ [1]): no significant effect
- Δ[Ca2+]i, U46619-induced (TPβ [2]; primary 1 μM U46619 in presence of 1 μM L-NAME): 220 ± 40 nM
- Δ[Ca2+]i, U46619-induced (TPβ [2]; secondary 1 μM U46619 at 15 min in presence of 1 μM L-NAME): 0 nM
- Δ[Ca2+]i, U46619-induced (TPα; HEK.TPα, primary 1 μM U46619 in presence of 1 μM L-NAME): 200 ± 9 nM
- Δ[Ca2+]i, U46619-induced (TPα; HEK.TPα, secondary 1 μM U46619 at 15 min in presence of 1 μM L-NAME): 80 ± 5.9 nM

Compound: O=C1C(Nc2ccccc2)=CC(=O)c2ncccc21 [LY 83583, 6-Anilino-5,8-quinolinequinone]
- effect of inhibitor on U46619-induced [Ca2+]i mobilization by TPβ (TPβ [1]): no significant effect
- Δ[Ca2+]i, U46619-induced (TPβ [2]; primary 1 μM U46619 in presence of 1 μM LY 83583): 185 ± 26 nM
- Δ[Ca2+]i, U46619-induced (TPβ [2]; secondary 1 μM U46619 at 15 min in presence of 1 μM LY 83583): 0 nM
- Δ[Ca2+]i, U46619-induced (TPα; HEK.TPα, primary 1 μM U46619 in presence of 1 μM LY 83583): 210 ± 12 nM
- Δ[Ca2+]i, U46619-induced (TPα; HEK.TPα, secondary 1 μM U46619 at 15 min in presence of 1 μM LY 83583): 58 ± 6 nM
